The values that follow come from US7405220B2, “Pyrazolopyrimidines” (Hoffmann-La Roche Inc., priority 2004, dated 2008).

In one assay the target is human cyclin E-Cdk2 (Homo sapiens, UniProt P24941). The assay is described as follows: Cdk2 FlashPlate kinase assay (Rb phosphorylation). The assay is classed as biochemical. Conditions: recombinant cyclin E-Cdk2, Rb substrate, 1 μM ATP. The procedure: (§1) To determine inhibition of Cdk4, Cdk2 and Cdk1 activity, kinase assays were conducted using FlashPlate™ assays (NEN™-Life Science Products). FlashPlate assays were performed using recombinant human cyclin B-Cdk1, human cyclin E-Cdk2 or human cyclin D1-Cdk4 complexes. GST-cyclinE (GST-cycE), Cdk2, GST-cyclinB (GST-cycB), Cdk1, GST-Cdk4 and cyclin D1 (cycD1) cDNA clones in baculovirus vectors were provided by Dr. W. Harper at the Baylor College of Medicine, Houston, Tex. Proteins were co-expressed in High Five™ insect cells and the complex was purified on glutathione Sepharose resin (Pharmacia, Piscataway, N.J.) as previously described (Harper, J. W. et al. Cell 1993, 75, 805-816). A 6×-Histidine tagged truncated form of retinoblastoma (Rb) protein (amino acid 386-928) was used as the substrate for the cycD1-Cdk4, cycB-Cdk1 and the cycE-Cdk2 assays (the expression plasmid was provided by Dr. Veronica Sullivan, Department of Molecular Virology, Roche Research Centre, Welwyn Garden City, United Kingdom). The Rb protein is a natural substrate for phosphorylation by Cdk4, Cdk2 and Cdk1 (see Herwig and Strauss Eur. J. Biochem. Vol. 246 (1997) pp. 581-601 and the references cited therein).
(§2) The expression of the 62 Kd protein was under the control of an IPTG inducible promoter in an M15 E. coli strain. Cells were lysed by sonication and purification was carried out by binding lysates at pH 8.0 to a Ni-chelated agarose column pretreated with 1 mM imidazole. The resin was then washed several times with incrementally decreasing pH buffers to pH 6.0, and eluted with 500 mM imidazole. Eluted protein was dialysed against 20 mM HEPES pH 7.5, 30% glycerol, 200 mM NaCl, and 1 mM DTT. Purified Rb fusion protein stocks were quantitated for protein concentration, aliquoted, and stored at −70° C.
(§3) For all three kinase assays reported herein, 96-well FlashPlates were coated with Rb protein at 10 μg/ml, using 100 μl per well. Plates were incubated at 4° C. overnight or at room temperature for 3 hours on a shaker. To control for nonspecific phosphorylation, one row of wells was coated with 100 μl/well coating buffer (20 mM HEPES, 0.2 M NaCl). Plates were then washed twice with wash buffer (0.01% Tween 20 in phosphate-buffered saline). Compounds to be tested (“test compounds”) were added to the wells at 5× final concentration. Reactions were initiated by immediate addition of 40 μl reaction mix (25 mM HEPES, 20 mM MgCl2, 0.002% Tween 20, 2 mM DTT, 1 μM ATP, 4 nM 33P-ATP) and a sufficient amount of enzyme to give counts that were at least 10-fold above background. Plates were incubated at room temperature on a shaker for 30 minutes. Plates were washed four times with the wash buffer, sealed, and counted on the TopCount scintillation counter (Packard Instrument Co., Downers Grove, Ill.]. The percent inhibition of Rb phosphorylation, which is a measure of the inhibition of Cdk activity, was determined according to the following formula: […]
(§4) where “test compound” refers to the average counts per minute of the test duplicates, “nonspecific” refers to the average counts per minute when no CyclinD/Cdk4, etc., was added, and “total” refers to the average counts per minute when no compound was added. The IC50 value is the concentration of test compound that reduces by 50% the protein-kinase induced incorporation of the radiolabel under the test conditions described.

Assay [1] has as its system HCT116, a colorectal carcinoma cell line. Kind of assay: Tetrazolium dye (MTT) proliferation assay. The assay is classed as cell-based. Conditions: Homo sapiens, HCT-116; HCT116 cells. The procedure: Proliferation was evaluated by the tetrazolium dye assay according to the procedure of Denizot and Lang (Denizot, F. and Lang, R. J Immunol Methods 1986, 89, 271-277). The cell line used was HCT116, a colorectal carcinoma cell line obtained from the American Type Cell Culture Collection (ATCC; Rockville, Md.). The cells were grown in McCoy's 5A medium supplemented with 10% FCS and L-glutamine.
Cells were plated at the appropriate seeding density to give logarithmic growth over the course of the assay in a 96-well tissue culture plate. Plates were incubated overnight at 37° C. in a humidified incubator with 5% CO2. The next day, test compounds were serially diluted to four times the final concentration in the appropriate medium containing 1.2% DMSO. One-fourth final volume of each dilution was added in duplicate to the plates containing cells. The same volume of 1.2% DMSO in medium was added to a row of “control wells” such that the final concentration of DMSO in each well was 0.3%. Wells to which no cells were added served as the “blank.” Wells to which no inhibitor was added served as “no inhibitor control.” The plates were) returned to the incubator, and at set time points (determined by their growth curves) plates were analyzed as described below.
3-(4,5-dimethylthiazole-2-yl)-2,5-diphenyl-2H-tetrazolium bromide (thiazolyl blue; MTT; Sigma) was added to each well to yield a final concentration of 1 mg/ml. Plates were returned to the incubator for 2.5-3 hours at 37° C. The MTT-containing medium was removed and the resulting formazan metabolite was solubilized in 100% ethanol with shaking for 15 minutes at room temperature. Absorbance readings were taken in a microtiter plate reader (Dynatech and Molecular Devices plate readers were used interchangeably) at a wavelength of 570 nm with a 650 nm reference. Percent inhibition (% INH) is calculated by subtracting the absorbance of the blank well from all wells, then subtracting the ratio of the average absorbance of each test duplicate (SAVE) by the average of the controls (CAVE) from 1.00. The final number is then multiplied by 100 (% INH=(1.00−SAVE/CAVE)×100). The concentration at which 50% inhibition of cell proliferation is obtained (the IC50) is determined from the linear regression of a plot of the logarithm of the concentration versus percent inhibition.

A further assay concerns the target human cyclin D1-Cdk4 (Homo sapiens, UniProt P11802). The assay is described as follows: Cdk4 FlashPlate kinase assay (Rb phosphorylation). The assay is classed as biochemical. Conditions: recombinant cyclin D1-Cdk4, Rb substrate, 1 μM ATP. The procedure:
as §1, §2, §3, §4

The target in a further assay is human cyclin B-Cdk1 (Homo sapiens, UniProt P06493). The assay is described as follows: Cdk1 FlashPlate kinase assay (Rb phosphorylation). The assay is classed as biochemical. Particulars: recombinant cyclin B-Cdk1, Rb substrate, 1 μM ATP. The procedure: as §1, §2, §3, §4

Broadly, the IC50 is the midpoint of a concentration-inhibition curve.

Chain of human cyclin B-Cdk1 (P06493 whole entry): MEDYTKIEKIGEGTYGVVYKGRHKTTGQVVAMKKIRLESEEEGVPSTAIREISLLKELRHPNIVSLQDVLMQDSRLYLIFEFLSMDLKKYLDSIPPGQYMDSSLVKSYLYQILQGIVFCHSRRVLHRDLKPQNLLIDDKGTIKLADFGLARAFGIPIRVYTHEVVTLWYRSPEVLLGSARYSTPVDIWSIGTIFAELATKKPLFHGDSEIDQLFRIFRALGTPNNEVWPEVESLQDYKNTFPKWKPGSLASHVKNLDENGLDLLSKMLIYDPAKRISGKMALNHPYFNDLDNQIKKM
Chain of human cyclin B-Cdk1 (P14635 whole entry partner): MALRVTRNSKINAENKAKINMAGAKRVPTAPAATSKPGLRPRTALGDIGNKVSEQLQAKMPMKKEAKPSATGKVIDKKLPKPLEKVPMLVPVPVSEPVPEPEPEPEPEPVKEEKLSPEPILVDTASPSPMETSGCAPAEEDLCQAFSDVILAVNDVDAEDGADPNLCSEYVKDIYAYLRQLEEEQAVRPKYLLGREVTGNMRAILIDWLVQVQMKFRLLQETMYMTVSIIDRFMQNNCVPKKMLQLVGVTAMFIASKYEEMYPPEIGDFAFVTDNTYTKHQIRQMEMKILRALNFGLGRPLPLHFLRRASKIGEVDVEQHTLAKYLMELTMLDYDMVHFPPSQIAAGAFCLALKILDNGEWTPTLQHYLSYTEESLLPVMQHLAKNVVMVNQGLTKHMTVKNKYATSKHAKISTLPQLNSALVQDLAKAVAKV
Chain of human cyclin D1-Cdk4 (P11802 whole entry): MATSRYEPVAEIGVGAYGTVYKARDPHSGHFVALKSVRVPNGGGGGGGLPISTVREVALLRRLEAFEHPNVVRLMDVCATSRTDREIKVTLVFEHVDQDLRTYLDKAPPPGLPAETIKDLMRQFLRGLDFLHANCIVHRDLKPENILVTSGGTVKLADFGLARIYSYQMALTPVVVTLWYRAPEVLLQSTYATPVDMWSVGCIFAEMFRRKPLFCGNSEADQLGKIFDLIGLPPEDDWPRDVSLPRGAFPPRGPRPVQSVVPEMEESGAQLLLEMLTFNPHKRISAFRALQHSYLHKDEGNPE
Chain of human cyclin D1-Cdk4 (P24385 whole entry partner): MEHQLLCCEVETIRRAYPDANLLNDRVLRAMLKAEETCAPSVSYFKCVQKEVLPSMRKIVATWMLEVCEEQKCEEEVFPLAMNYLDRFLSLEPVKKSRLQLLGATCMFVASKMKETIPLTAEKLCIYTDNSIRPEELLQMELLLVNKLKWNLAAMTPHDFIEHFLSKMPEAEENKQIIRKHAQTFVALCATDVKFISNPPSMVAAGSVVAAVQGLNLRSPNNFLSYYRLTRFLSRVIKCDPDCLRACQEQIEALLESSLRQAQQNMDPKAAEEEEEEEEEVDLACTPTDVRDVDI

As for `COc1ccc(F)c(F)c1-c1n[nH]c2nc(NC3CCN(S(C)(=O)=O)CC3)ncc12` [Example 16, [3-(2,3-Difluoro-6-methoxy-phenyl)-1H-pyrazolo[3,4-d]pyrimidin-6-yl]-(1-methanesulfonyl-piperidin-4-yl)-amine], the half-maximal inhibitory concentration (IC50) was found to be 244 nM on human cyclin E-Cdk2, 4500 nM in assay [1] and 41 nM at human cyclin D1-Cdk4.

With `CS(=O)(=O)N1CCC(Nc2ncc3cn[nH]c3n2)CC1` [Example 19], the IC50 on human cyclin E-Cdk2 was found to be 33 nM; in assay [1], 9160 nM; on human cyclin B-Cdk1 it was 231 nM.

`Cc1n[nH]c2nc(NC3CCN(C)CC3)ncc12` [Example 23]: the figures for the IC50 on human cyclin E-Cdk2 and on human cyclin B-Cdk1 were 278 nM and 1460 nM, respectively.

On to `COc1ccc(F)cc1-c1n[nH]c2nc(NC3CCN(S(C)(=O)=O)CC3)ncc12` [Example 25, [3-(5-Fluoro-2-methoxy-phenyl)-1H-pyrazolo[3,4-d]pyrimidin-6-yl]-(1-methanesulfonyl-piperidin-4-yl)-amine], for which the half-inhibitory concentration (IC50) on human cyclin E-Cdk2 worked out at 77 nM; on human cyclin D1-Cdk4 it was 42 nM.

Turning to `COc1ccc(F)cc1-c1n[nH]c2nc(N[C@H]3CCN(S(C)(=O)=O)C[C@@H]3O)ncc12` [Example 27], the values for the IC50 (on human cyclin E-Cdk2; in assay [1]; on human cyclin D1-Cdk4) were 275 nM, 1700 nM and 4 nM, respectively.

Consider `COc1ccccc1-c1n[nH]c2nc(NC3CCN(S(C)(=O)=O)CC3)ncc12` [Example 28], for which the half-maximal inhibitory concentration (IC50) was determined as 18 nM at human cyclin E-Cdk2, 1200 nM in assay [1], 107 nM at human cyclin B-Cdk1 and 14 nM at human cyclin D1-Cdk4.

For the compound `CS(=O)(=O)N1CCC(Nc2ncc3c(-c4c(F)cccc4F)n[nH]c3n2)CC1` [Example 29, [3-(2,6-Difluoro-phenyl)-1H-pyrazolo[3,4-d]pyrimidin-6-yl]-(1-methanesulfonyl-piperidin-4-yl)-amine], the 50% inhibitory concentration (IC50) was determined as 278 nM at human cyclin E-Cdk2, 32000 nM in assay [1] and 867 nM on human cyclin B-Cdk1.

As for `CS(=O)(=O)N1CCC(Nc2ncc3c(-c4ccccc4)n[nH]c3n2)CC1` [Example 30, (1-Methanesulfonyl-piperidin-4-yl)-(3-phenyl-1H-pyrazolo[3,4-d]pyrimidin-6-yl)-amine], the IC50 on human cyclin E-Cdk2 was 179 nM; in assay [1], 3930 nM; on human cyclin B-Cdk1, 262 nM; on human cyclin D1-Cdk4 it was 128 nM.

As to `COc1ccccc1-c1n[nH]c2nc(Nc3ccc(S(N)(=O)=O)cc3)ncc12` [Example 32, 4-[3-(2-Methoxy-phenyl)-1H-pyrazolo[3,4-d]pyrimidin-6-ylamino]-benzenesulfonamide; compound with trifluoro-acetic acid], the concentration for half-maximal inhibition (IC50) at human cyclin E-Cdk2 is 9 nM; on human cyclin D1-Cdk4, 36 nM.

In the case of `Fc1ccc(Nc2ncc3c(-c4c(F)cccc4F)n[nH]c3n2)cc1` [Example 33, [3-(2,6-Difluoro-phenyl)-1H-pyrazolo[3,4-d]pyrimidin-6-yl]-(4-fluoro-phenyl)-amine], the IC50 at human cyclin E-Cdk2 and at human cyclin D1-Cdk4 was 2500 nM in each case.

For the compound `COc1ccccc1-c1n[nH]c2nc(NCCO)ncc12` [Example 34, 2-[3-(2-Methoxy-phenyl)-1H-pyrazolo[3,4-d]pyrimidin-6-ylamino]-ethanol], the IC50 on human cyclin E-Cdk2 is 594 nM; on human cyclin D1-Cdk4 it was 344 nM.

As for `COc1ccccc1-c1n[nH]c2nc(NCCCCCN)ncc12` [Example 35, [3-(2-Methoxy-phenyl)-1H-pyrazolo[3,4-d]pyrimidin-6-yl]-pentane-1,5-diamine; compound with trifluoro-acetic acid], the values for the 50% inhibitory concentration (IC50) on human cyclin E-Cdk2 and on human cyclin D1-Cdk4 were 1850 nM and 1120 nM, respectively.

Take `COc1ccccc1-c1n[nH]c2nc(NCCCN(C)C)ncc12` [Example 36, N′-[3-(2-Methoxy-phenyl)-1H-pyrazolo[3,4-d]pyrimidin-6-yl]-N,N-dimethyl-propane-1,3-diamine]: the IC50 at human cyclin E-Cdk2 came out at 278 nM.

For `COc1ccccc1-c1n[nH]c2nc(NCCCCCN(C)C)ncc12` [Example 37, N-[3-(2-Methoxy-phenyl)-1H-pyrazolo[3,4-d]pyrimidin-6-yl]-N,N-dimethyl-pentane-1,5-diamine; compound with trifluoro-acetic acid], at human cyclin E-Cdk2, the half-maximal inhibitory concentration (IC50) is 278 nM.

For `COc1ccccc1-c1n[nH]c2nc(Nc3ccccc3)ncc12` [Example 38, [3-(2-Methoxy-phenyl)-1H-pyrazolo[3,4-d]pyrimidin-6-yl]-phenyl-amine], the 50% inhibitory concentration (IC50) at human cyclin E-Cdk2 amounted to 278 nM.

Regarding `COc1ccc(Nc2ncc3c(-c4ccccc4OC)n[nH]c3n2)cc1` [Example 39, (4-Methoxy-phenyl)-[3-(2-methoxy-phenyl)-1H-pyrazolo[3,4-d]pyrimidin-6-y]-amine; compound with trifluoro-acetic acid], the half-maximal inhibitory concentration (IC50) at human cyclin E-Cdk2 was 278 nM.

With `COc1ccccc1Nc1ncc2c(-c3c(F)cccc3F)n[nH]c2n1` [Example 40, [3-(2,6-Difluoro-phenyl)-1H-pyrazolo[3,4-d]pyrimidin-6-yl]-(2-methoxy-phenyl)-amine; compound with trifluoro-acetic acid], the half-maximal inhibitory concentration (IC50) on human cyclin E-Cdk2 stood at 278 nM.

Consider `Cc1n[nH]c2nc(Nc3ccc(S(N)(=O)=O)cc3)ncc12` [Example 41, 4-(3-Methyl-1H-pyrazolo[3,4-d]pyrimidin-6-ylamino)-benzenesulfonamide; compound with trifluoro-acetic acid], for which the IC50 on human cyclin E-Cdk2 came to 24 nM.

For `Cc1n[nH]c2nc(NCCO)ncc12` [Example 42, 2-(3-Methyl-1H-pyrazolo[3,4-d]pyrimidin-6-ylamino)-ethanol; compound with trifluoro-acetic acid], on human cyclin E-Cdk2, the IC50 is 278 nM.

Consider `CCOC(=O)N1CCC(Nc2ncc3c(-c4cccc(F)c4)n[nH]c3n2)CC1` [Example 43, 4-[3-(3-Fluoro-phenyl)-1H-pyrazolo[3,4-d]pyrimidin-6-ylamino]-piperidine-1-carboxylic acid ethyl ester; compound with trifluoro-acetic acid], for which the half-inhibitory concentration (IC50) at human cyclin E-Cdk2 was 278 nM.
